Experimental data: patent US4740233A, “Substituted 1,2,4-triazolo[1,5-a]-pyrimidine-2-sulfonamides and compositions and methods of controlling undesired vegetation and suppressing the nitrification of ammonium nitrogen in soil” (The Dow Chemical Company, priority 1986, dated 1988)

Columns and labels:
[1] = test system: rice; assay: Control of aquatic plant species (paddy water); format: in vivo, Oryza sativa; settings: Oryza sativa, 216 h, nine days, read-out: Percent control; for pest or weed control at 250 g/ha: 0.25 Kg/Ha; for pest or weed control at 1000 g/ha: 1.0 Kg/Ha
Procedure: (§1) In testing for such utility, the plant species to be tested were transplanted into 16 oz. containers into about 2 inches of soil when they were in the 1-2 inch stage and then flooded to a depth of about 1 inch. An acetone concentrate of the chemical to be tested was then injected into the paddy water, the volume injected being varied as desired to provide the desired concentration. Percent control was evaluated nine days after application.

[2] = test system: barnyardgrass; assay: Control of aquatic plant species (paddy water); format: in vivo, Echinochloa crusgalli; settings: Echinochloa crus-galli, 216 h, nine days, read-out: Percent control; for pest or weed control at 250 g/ha: 0.25 Kg/Ha; for pest or weed control at 1000 g/ha: 1.0 Kg/Ha
Procedure: as §1

[3] = test system: sprangletop; assay: Control of aquatic plant species (paddy water); format: in vivo, Leptochloa filiformis; settings: Leptochloa filiformis, 216 h, nine days, read-out: Percent control; for pest or weed control at 250 g/ha: 0.25 Kg/Ha; for pest or weed control at 1000 g/ha: 1.0 Kg/Ha
Procedure: as §1

[4] = test system: yellow nutsedge; assay: Control of aquatic plant species (paddy water); format: in vivo, Cyperus esculentus; settings: Cyperus, 216 h, nine days, read-out: Percent control; for pest or weed control at 250 g/ha: 0.25 Kg/Ha; for pest or weed control at 1000 g/ha: 1.0 Kg/Ha
Procedure: as §1

[5] = test system: nitrification of ammonium nitrogen; assay: Suppression of nitrification of ammonium nitrogen in soil; settings: 27° C.
Outline: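 Soil (20 g) moistened to its 1/3 bar tension value, mixed with test chemical and incubated sealed for two weeks at 27° C. Nitrate extracted with ammonium sulfate solution and measured by nitrate-specific ion electrode; value given as % NH4-N remaining.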

[6] = test system: cotton; assay: Postemergent control of plant species; format: in vivo, Gossypium spp.; settings: Gossypium hirsutum, post-emergence, 336 h, read-out: percent postemergent control
Procedure: (§2) In representative operations, each compound to be utilized in a series of tests is dissolved in acetone to one-half of the final volume (twice the final concentration) to be used and the acetone solution in each case is admixed with an equal volume of water containing 0.1 percent by weight of surface active material. The compositions, generally in the nature of an emulsion, were employed to spray separate respective plant species which had been grown to a 2-4 leaf stage in soil of good nutrient content in a greenhouse. The various beds were positioned side by side and exposed to substantially identical conditions of temperature and light. Each bed was maintained so as to prevent any interaction with test compounds in different seed beds. Other plants were left untreated to serve as controls. After treatment, the plants were maintained for about two weeks under greenhouse conditions conducive for good plant growth and watered as necessary. Control refers to the reduction in growth compared to the observed results of the same untreated species.

[7] = test system: rape; assay: Postemergent control of plant species; format: in vivo, Brassica napus; settings: Brassica napus, post-emergence, 336 h, read-out: percent postemergent control
Procedure: as §2

[8] = test system: soybean; assay: Postemergent control of plant species; format: in vivo, Glycine max.; settings: Glycine max, post-emergence, 336 h, read-out: percent postemergent control
Procedure: as §2

[9] = test system: sugar beet; assay: Postemergent control of plant species; format: in vivo, Beta saccharifera; settings: Beta vulgaris, post-emergence, 336 h, read-out: percent postemergent control
Procedure: as §2

[10] = test system: jimsonweed; assay: Postemergent control of plant species; format: in vivo, Datura stramonium; settings: Datura stramonium, post-emergence, 336 h, read-out: percent postemergent control
Procedure: as §2

[11] = test system: annual morning glory; assay: Postemergent control of plant species; format: in vivo, Ipomoea spp.; settings: Ipomoea, post-emergence, 336 h, read-out: percent postemergent control
Procedure: as §2

[12] = test system: pigweed; assay: Postemergent control of plant species; format: in vivo, Amaranthus spp.; settings: Amaranthus retroflexus, post-emergence, 336 h, read-out: percent postemergent control
Procedure: as §2

[13] = test system: velvetleaf; assay: Postemergent control of plant species; format: in vivo, Abutilon theophrasti; settings: Abutilon theophrasti, post-emergence, 336 h, read-out: percent postemergent control
Procedure: as §2

[14] = test system: corn; assay: Postemergent control of plant species; format: in vivo, Zea mays; settings: Zea mays, post-emergence, 336 h, read-out: percent postemergent control
Procedure: as §2

[15] = test system: rice; assay: Postemergent control of plant species; format: in vivo, Oryza sativa; settings: Oryza sativa, post-emergence, 336 h, read-out: percent postemergent control
Procedure: as §2

[16] = test system: sorghum; assay: Postemergent control of plant species; format: in vivo, Sorghum vulgare; settings: Sorghum, post-emergence, 336 h, read-out: percent postemergent control
Procedure: as §2

[17] = test system: wheat; assay: Postemergent control of plant species; format: in vivo, Triticum aestivum; settings: Triticum aestivum, post-emergence, 336 h, read-out: percent postemergent control
Procedure: as §2

[18] = test system: barnyardgrass; assay: Postemergent control of plant species; format: in vivo, Echinochloa crusgalli; settings: Echinochloa crus-galli, post-emergence, 336 h, read-out: percent postemergent control
Procedure: as §2

[19] = test system: crabgrass; assay: Postemergent control of plant species; format: in vivo, Digitaria spp.; settings: Digitaria sanguinalis, post-emergence, 336 h, read-out: percent postemergent control
Procedure: as §2

[20] = test system: yellow foxtail; assay: Postemergent control of plant species; format: in vivo, Setaria lutescens; settings: Setaria, post-emergence, 336 h, read-out: percent postemergent control
Procedure: as §2

[21] = test system: johnson grass; assay: Postemergent control of plant species; format: in vivo, Sorghum halepense; settings: Sorghum halepense, post-emergence, 336 h, read-out: percent postemergent control
Procedure: as §2

[22] = test system: wild oats; assay: Postemergent control of plant species; format: in vivo, Avena fatua; settings: Avena fatua, post-emergence, 336 h, read-out: percent postemergent control
Procedure: as §2

[23] = test system: yellow nutsedge; assay: Postemergent control of plant species; format: in vivo, Cyperus esculentus; settings: Cyperus, post-emergence, 336 h, read-out: percent postemergent control
Procedure: as §2

SMILES | % NH4-N Remaining After 2 Weeks Incubation ([5]; 0.01 ppm) | % NH4-N Remaining After 2 Weeks Incubation ([5]; 0.1 ppm) | % NH4-N Remaining After 2 Weeks Incubation ([5]; 1 ppm) | % NH4-N Remaining After 2 Weeks Incubation ([5]; 10 ppm) | pest or weed control at 250 g/ha [1] | pest or weed control at 250 g/ha [2] | pest or weed control at 250 g/ha [3] | pest or weed control at 250 g/ha [4] | % NH4-N Remaining After 2 Weeks Incubation ([5]; 0.06 ppm) | % NH4-N Remaining After 2 Weeks Incubation ([5]; 0.25 ppm) | plant injury at 500 ppm [6] | plant injury at 500 ppm [7] | plant injury at 500 ppm [8] | plant injury at 500 ppm [9] | pest or weed control at 500 ppm [10] | pest or weed control at 500 ppm [11] | pest or weed control at 500 ppm [12] | pest or weed control at 500 ppm [13] | plant injury at 500 ppm [14] | plant injury at 500 ppm [15] | other results
Cc1cc(C)n2nc(S(=O)(=O)Nc3ccccc3C)nc2n1 [Compound 2] | 0% | 0% | 39% | 78% |  |  |  |  |  |  |  |  |  |  |  |  |  |  |  |  | pest or weed control at 2000 g/ha ([1]; 2.0 Kg/Ha): 97%; pest or weed control at 2000 g/ha ([2]; 2.0 Kg/Ha): 97%; pest or weed control at 2000 g/ha ([3]; 2.0 Kg/Ha): 99%; pest or weed control at 2000 g/ha ([4]; 2.0 Kg/Ha): 93%
CSc1ccccc1NS(=O)(=O)c1nc2nc(C)cc(C)n2n1 [Compound 9] | 0% | 14% | 59% | 88% | 0% | 93% | 80% | 30% |  |  |  |  |  |  |  |  |  |  |  |  | pest or weed control at 1000 g/ha [1]: 25%; pest or weed control at 1000 g/ha [2]: 99%; pest or weed control at 1000 g/ha [3]: 97%; pest or weed control at 1000 g/ha [4]: 85%
Cc1cc(C)n2nc(S(=O)(=O)Nc3ccccc3S(=O)(=O)N(C)C)nc2n1 [Compound 15] |  |  | 54% |  |  |  |  |  | 1% | 23% |  |  |  |  |  |  |  |  |  |  | pest or weed control at 4000 g/ha ([1]; 4.0 Kg/Ha): 35%; pest or weed control at 4000 g/ha ([2]; 4.0 Kg/Ha): 25%; pest or weed control at 4000 g/ha ([3]; 4.0 Kg/Ha): 0%; pest or weed control at 4000 g/ha ([4]; 4.0 Kg/Ha): 70%; % NH4-N Remaining After 2 Weeks Incubation ([5]; 0.125 ppm): 0%; % NH4-N Remaining After 2 Weeks Incubation ([5]; 0.5 ppm): 42%
Cc1cc(C)n2nc(S(=O)(=O)Nc3c(Br)cccc3Br)nc2n1 [Compound 38] | 46% | 68% | 84% | 94% | 97% | 99% | 85% | 97% |  |  |  |  |  |  |  |  |  |  |  |  | pest or weed control at 31 g/ha ([1]; 0.031 Kg/Ha): 0%; pest or weed control at 31 g/ha ([2]; 0.031 Kg/Ha): 80%; pest or weed control at 31 g/ha ([3]; 0.031 Kg/Ha): 0%; pest or weed control at 31 g/ha ([4]; 0.031 Kg/Ha): 95%
O=S(=O)(Nc1c(Cl)cccc1Cl)c1nc2ncc(Cl)cn2n1 [Compound 114] |  |  |  |  | 0% | 80% | 0% | 65% |  |  |  |  |  |  |  |  |  |  |  |  | pest or weed control at 1000 g/ha [1]: 70%; pest or weed control at 1000 g/ha [2]: 95%; pest or weed control at 1000 g/ha [3]: 0%; pest or weed control at 1000 g/ha [4]: 90%
C=CCN(c1c(Cl)cccc1Cl)S(=O)(=O)c1nc2nc(C)cc(C)n2n1 [Compound 263] |  |  | 87% |  |  |  |  |  | 0% | 0% | 50% | 100% | 0% | 100% | 80% | 80% | 90% | 40% | 0% | 85% | plant injury at 500 ppm [16]: 70%; plant injury at 500 ppm [17]: 0%; pest or weed control at 500 ppm [18]: 40%; pest or weed control at 500 ppm [19]: 90%; pest or weed control at 500 ppm [20]: 95%; pest or weed control at 500 ppm [21]: 100%; pest or weed control at 500 ppm [22]: 0%; pest or weed control at 500 ppm [23]: 0%; % NH4-N Remaining After 2 Weeks Incubation ([5]; 4 ppm): 11%
Cc1cc(C)n2nc(S(=O)(=O)N(Cc3ccccc3)c3c(Cl)cccc3Cl)nc2n1 [Compound 265] |  |  | 0% |  |  |  |  |  | 0% | 0% | 0% | 60% | 40% | 80% | 0% | 60% | 70% | 0% | 0% | 0% | plant injury at 500 ppm [16]: 0%; plant injury at 500 ppm [17]: 0%; pest or weed control at 500 ppm [18]: 0%; pest or weed control at 500 ppm [19]: 0%; pest or weed control at 500 ppm [20]: 0%; pest or weed control at 500 ppm [21]: 0%; pest or weed control at 500 ppm [22]: 0%; pest or weed control at 500 ppm [23]: 0%; % NH4-N Remaining After 2 Weeks Incubation ([5]; 4 ppm): 17%
CCOC(=O)CN(c1c(C)cccc1C(=O)OC)S(=O)(=O)c1nc2nc(C)cc(C)n2n1 [Compound 266] |  |  | 2% |  |  |  |  |  | 0% | 0% | 10% | 75% | 80% | 30% | 90% | 85% | 25% | 75% | 0% | 40% | plant injury at 500 ppm [16]: 0%; plant injury at 500 ppm [17]: 0%; pest or weed control at 500 ppm [18]: 75%; pest or weed control at 500 ppm [19]: 70%; pest or weed control at 500 ppm [20]: 80%; pest or weed control at 500 ppm [21]: 0%; pest or weed control at 500 ppm [22]: 0%; pest or weed control at 500 ppm [23]: 0%; % NH4-N Remaining After 2 Weeks Incubation ([5]; 4 ppm): 13%
